Key:
[1] = tested on: p-ERK pathway in H358 cells; assay: p-ERK pathway inhibition in H358 cells (Advanced phospho-ERK (Thr202/Tyr204) cellular kit, HTRF); format: cell-based; settings: Homo sapiens, NCI-H358, 1 h compound incubation
Method in brief: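 IC50 from an 8-point four-parameter fit of % inhibition of ERK Thr202/Tyr204 phosphorylation, measured by HTRF 665/620 ratio in lysates. H358 cells were seeded at 50000/well, starved overnight without serum, and exposed to compound 1 h at 37 °C; controls were cell-free (100%) and untreated (0%).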

H358 cells = assay: H358 cell proliferation inhibition (CellTiter-Glo luminescent cell viability assay); format: cell-based; settings: Homo sapiens, NCI-H358, 168 h, 7 days
Method: The effect of the compounds of the present invention on H358 cell proliferation was assessed by CellTiter-Glo luminescent cell viability assay kit method.
H358 cells (ATCC, CRL-5807) were cultured in RPMI1640 (Hyclone, SH30256.01) complete medium containing 10% FBS (Gibco, 10100147) and 100 U/mL penicillin-streptomycin mixed solution (Gibco, 15140163). When the cells grew to 80-90%, the cells were digested, pipetted, and seeded in a 96-well plate (Corning, 4515) at 3000 cells/well (180 µL RPMI1640 complete medium), and then the 96-well plate was incubated overnight in an incubator at 37 °C with 5% CO2.
After incubation overnight, 20 µL of a diluted test compound was added to each well using a multi-channel pipette, and the 96-well plate was placed in an incubator at 37 °C with 5% CO2 for further culture. After 7 days, 100 µL of the supernatant was pipetted and discarded. 50 µL of CellTiter-Glo® 3D Cell Viability Assay liquid was added to each well. The plate was shaken at room temperature at 450 rpm for 30 min. After the cells were completely lysed, "Luminescence" on the microplate reader was selected for plate reading. In this experiment, the cell-free group (replaced with 1640 medium) was used as the 100% inhibition group, and the compound-free group in which the cell was added was used as the 0% inhibition group.
The inhibition percentage of H358 cell proliferation by the compounds of the present invention could be calculated by the following formula: [formula]
IC50 values of the compounds were calculated from 8 concentration points using XLfit (ID Business Solutions Ltd., UK) software by the following formula: Y = Bottom + (Top−Bottom)/(1+10^(∧)((logIC50−X)×slopefactor)) [formula]
Y is the inhibition percentage, X is the logarithmic value of the concentration of the test compound, Bottom is the minimum inhibition percentage, Top is the maximum inhibition percentage, and slope factor is the slope coefficient of the curve.

| Structure (SMILES) | IC50 [1] [nM] | IC50 (H358 cells) [nM] |
| --- | --- | --- |
| Cc1nc(N[C@H](C)c2cccc(C(F)F)c2F)c2cn(C3(CF)CC3)c(=O)c(Oc3ccnc(C#N)c3)c2n1 [Example 72, (R)-4-((4-((1-(3-(difluoromethyl)-2-fluorophenyl)ethyl)amino)-6-(1-(fluoromethyl)cyclopropyl)-2-methyl-7-oxo-6,7-dihydropyrido[4,3-d]pyrimidin-8-yl)oxy)pyridinecarbonitrile] | 72.4 | 73.8 |
| [2H]C([2H])([2H])Oc1c(=O)n(N2CCOCC2)cc2c(N[C@H](C)c3cccc(C(F)F)c3F)nc(C)nc12 [Example 48, (R)-4-((1-(3-(difluoromethyl)-2-fluorophenyl)ethyl)amino)-8-(methoxy-d3)-2-methyl-6-morpholinepyrido[4,3-d]pyrimidine-7(6H)-one] | 114 | 47.2 |
| Cc1nc(N[C@H](C)c2cccc(C(F)F)c2F)c2cn(N3CCOCC3)c(=O)c(N3CCN(C)CC3)c2n1 [Example 69, (R)-4-((1-(3-(difluoromethyl)-2-fluorophenyl)ethyl)amino)-2-methyl-8-(4-methylpiperazin-1-yl)-6-morpholinepyrido[4,3-d]pyrimidine-7(6H)-one] | 38.7 | 22.9 |
| Cc1nc(N[C@H](C)c2cccc(C(F)F)c2F)c2cn(C3(CF)CC3)c(=O)c(N3CC4CC(C3)N4C3COC3)c2n1 [Example 152, 4-(((R)-1-(3-(difluoromethyl)-2-fluorophenyl)ethyl)amino)-6-(1-(fluoromethyl)cyclopropyl)-2-methyl-8-(6-(oxetan-3-yl)-3,6-diazabicyclo[3.1.1]heptan-3-yl)pyrido[4,3-d]pyrimidine-7(6H)-one] | 76.3 | 13.6 |
| [2H]C1([2H])COC[C@H](C)N1c1c(=O)n(C2(CF)CC2)cc2c(N[C@H](C)c3cccc(C(F)F)c3F)nc(C)nc12 [Example 175] | 31 | 36.2 |
| Cc1nc(N[C@H](C)c2cccc(C(F)F)c2F)c2cn(C3(CF)CC3)c(=O)c(C3(O)CCOC3)c2n1 (stereo partly drawn) [Example 139, 4-(((R)-1-(3-(difluoromethyl)-2-fluorophenyl)ethyl)amino)-6-(1-(fluoromethyl)cyclopropyl)-8-(3-hydroxytetrahydrofuran-3-yl)-2-methylpyrido[4,3-d]pyrimidine-7(6H)-one] | 81.2 | 86.6 |
| [2H][C@](C)(Nc1nc(C)nc2c(N3CCOC[C@@H]3C)c(=O)n(C3(CF)CC3)cc12)c1cccc(C(F)F)c1F [Example 112, 4-(((R)-1-(3-(difluoromethyl)-2-fluorophenyl)ethyl-1-d)amino)-6-(1-(fluoromethyl)cyclopropyl)-2-methyl-8-((S)-3-methylmorpholine)pyrido[4,3-d]pyrimidine-7(6H)-one] | 109 | 21.2 |
| [2H][C@](C)(Nc1nc(C)nc2c(N3CCS(=O)(=O)CC3)c(=O)n(C3(CF)CC3)cc12)c1cccc(C(F)F)c1F [Example 124, (R)-4-((1-(3-(difluoromethyl)-2-fluorophenyl)ethyl-1-d)amino)-8-(1,1-dioxidothiomorpholinyl)-6-(1-(fluoromethyl)cyclopropyl)-2-methylpyrido[4,3-d]pyrimidine-7(6H)-one] | 62.3 | 41.9 |
| Cc1nc(N[C@H](C)c2cccc(C(F)F)c2F)c2cn(C3(CF)CC3)c(=O)c(N3CCN(C4COC4)CC3)c2n1 [Example 95, (R)-4-((1-(3-(difluoromethyl)-2-fluorophenyl)ethyl)amino)-6-(1-(fluoromethyl)cydopropyt)-2-methyt-8-(4-(oxetan-3-yt)piperazin-l-yt)pyrido[4,3-d]pyrimidine-7(6H)-one] | 30.8 | 10.2 |
| Cc1nc(N[C@H](C)c2cccc(C(F)F)c2F)c2cn(C3(CF)CC3)c(=O)c(N3CCN(C(C)C)CC3)c2n1 [Example 94, (R)-4-((1-(3-(difluoromethyl)-2-fluorophenyl)ethyl)amino)-6-(1-(fluoromethyl)cyclopropyl)-8-(4-isopropylpiperazin-1-yl)-2-methylpyrido[4,3-d]pyrimidine-7(6H)-one] | 60.9 | 16.8 |
| Cc1nc(N[C@H](C)c2cccc(S(F)(F)(F)(F)F)c2)c2cn(C3(CF)CC3)c(=O)c(N3CCOCC3)c2n1 [Example 46, (R)-6-(1-(fluoromethyl)cyclopropyl)-2-methyl-8-morpholino-4-((1-(3-(pentafluoro-λ^6-sulfanyl)phenyl)ethyl)amino)pyrido[4,3-d]pyrimidine-7(6H)-one] | 112 | 74.8 |
| Cc1nc(N[C@H](C)c2cccc(C(F)F)c2F)c2cn(C3(CF)CC3)c(=O)c(N(C)c3cnn(C)c3)c2n1 [Example 65, (R)-4-((1-(3-(difluoromethyl)-2-fluorophenyl)ethyl)amino)-6-(1-(fluoromethyl)cyclopropyl)-2-methyl-8-(methyl(1-methyl-1H-pyrazol-4-yl)amino)pyrido[4,3-d]pyrimidine-7(6H)-one] | 27 | 66.4 |
| [2H]C([2H])([2H])[C@@H](Nc1nc(C)nc2c(N3CCOC[C@@H]3C)c(=O)n(C3(CF)CC3)cc12)c1cccc(C(F)F)c1F [Example 113, 4-(((R)-1-(3-(difluoromethyl)-2-fluorophenyl)ethyl-2,2,2-d3)amino)-6-(1-(fluoromethyl)cyclopropyl)-2-methyl-8-((S)-3-methylmorpholine)pyrido[4,3-d]pyrimidine-7(6H)-one] | 70 | 15.6 |

Continued by falling IC50 [1], values first:

| IC50 [1] [nM] | IC50 (H358 cells) [nM] | Structure (SMILES) |
| --- | --- | --- |
| 145 | 12.5 | Cc1nc(N[C@H](C)c2cccc(C(F)F)c2F)c2cn(C3(CF)CC3)c(=O)c(N3CCC(N(C)C)CC3)c2n1 [Example 158] |
| 117 | 52 | Cc1nc(N[C@H](C)c2cccc(C(F)F)c2F)c2cn(C3(CF)CC3)c(=O)c(N3C[C@@H](C)O[C@@H](C)C3)c2n1 [Example 41, 4-(((R)-1-(3-(difluoromethyl)-2-fluorophenyl)ethyl)amino)-8-((2S,6R)-2,6-dimethylmorpholino)-6-(1-(fluoromethyl)cyclopropyl)-2-methylpyrido[4,3-d]pyrimidine-7(6H)-one] |
| 88.2 | 50.8 | COc1c(=O)n(C2(CF)CC2)cc2c(N[C@H](C)c3cccc(C(C)(F)F)c3F)nc(C)nc12 [Example 11, (R)-4-((1-(3-(1,1-difluoroethyl)-2-fluorophenyl)ethyl)amino)-6-(1-(fluoromethyl)cyclopropyl)-8-methoxy-2-methylpyrido[4,3-d]pyrimidine-7(6H)-one] |
| 87.4 | 46 | Cc1nc(N[C@H](C)c2cccc(C(F)F)c2F)c2cn(N3CCOCC3)c(=O)c(-c3cnc4ccnn4c3)c2n1 [Example 120, (R)-4-((1-(3-(difluoromethyl)-2-fluorophenyl)ethyl)amino)-2-methyl-6-morpholino-8-(pyrazolo[1,5-a]pyrimidin-6-yl)pyrido[4,3-d]pyrimidine-7(6H)-one] |
| 73 | 133 | [2H]C([2H])([2H])Oc1c(=O)n(C2(CF)CC2)cc2c(N[C@H](C)c3cccc(S(F)(F)(F)(F)F)c3)nc(C)nc12 [Example 31, (R)-6-(1-(fluoromethyl)cyclopropyl)-8-(methoxy-d3)-2-methyl-4-((1-(3-(pentafluoro-λ^6-sulfanyl)phenyl)ethyl)amino)pyrido[4,3-d]pyrimidine-7(6H)-one] |
| 67.5 | 73.1 | Cc1nc(N[C@H](C)c2cccc(C(F)F)c2F)c2cn(C3(CF)CC3)c(=O)c(N3CCOC[C@@H]3C(C)C)c2n1 [Example 57, 4-(((R)-1-(3-(difluoromethyl)-2-fluorophenyl)ethyl)amino)-6-(1-(fluoromethyl)cyclopropyl)-8-((S)-3-isopropylmorpholino)-2-methylpyrido[4,3-d]pyrimidine-7(6H)-one] |
| 62.6 | 10.1 | CC(=O)N1CCN(c2c(=O)n(C3(CF)CC3)cc3c(N[C@H](C)c4cccc(C(F)F)c4F)nc(C)nc23)CC1 [Example 49] |
| 49.2 | 50.8 | Cc1nc(N[C@H](C)c2cccc(C(F)F)c2F)c2cn(C3(CF)CC3)c(=O)c(N3CCO[C@@H](C)C3)c2n1 [Example 43, 4-(((R)-1-(3-(difluoromethyl)-2-fluorophenyl)ethyl)amino)-6-(1-(fluoromethyl)cyclopropyl)-2-methyl-8-((S)-2-methylmorpholine)pyrido[4,3-d]pyrimidine-7(6H)-one] |
| 18.9 | 31.4 | Cc1nc(N[C@H](C)c2cccc(C(F)F)c2F)c2cn(C3(CF)CC3)c(=O)c(N3CCC(C)(O)CC3)c2n1 [Example 45, (R)-4-((1-(3-(difluoromethyl)-2-fluorophenyl)ethyl)amino)-6-(1-(fluoromethyl)cyclopropyl)-8-(4-hydroxy-4-methylpiperidin-1-yl)-2-methylpyrido[4,3-d]pyrimidine-7(6H)-one] |

From patent publication EP4417607A1, “HETEROCYCLIC COMPOUND AS SOS1 INHIBITOR AND USES THEREOF” (Nanjing Zaiming Pharmaceutical Co., Ltd., priority 2021, dated 2023)
